# Test results from patent US8026211B2, “Methods and formulations for increasing intestinal function” (Technion Research & Development Foundation Ltd., priority 2004, dated 2011).
# How the values were obtained:
# Type in all cases: in vivo
# [1] = system: ischemia-reperfusion (IR) injury in rats; assay: Rat ischemia-reperfusion injury: survival and intestinal mucosal parameters (bowel and mucosal weight, DNA, protein)
# Protocol: Animals: Animals were obtained from the Rappaport Faculty of Medicine (Technion, Haifa, Israel). Male rats weighing 240-260 g were kept in individual stainless steel cages at constant temperature and humidity, and a 12-hour light-dark cycle was maintained. Rats were fasted 12 hours prior to the experiment with free access to water.
# (§1) Surgical procedure: Following overnight fasting, the animals were anesthetized with intraperitoneal injection of pentobarbital (IP 40 mg/kg). Using sterile techniques, the abdomen was opened using a midline incision. […] IR underwent laparotomy, mobilization and occlusion of SMA and portal vein by vascular clamp for 30 minutes followed by a reperfusion period of 24 hours. Before closure of the abdomen, the rats were resuscitated with a 3-ml intraperitoneal injection of warm 0.9% saline. For all operations, the abdominal cavity was closed in two layers with a running suture of Dexon “S” Polyglycolic Acid 3/0. Rats were allowed free access to water and food. Twenty-four hours later, the rats were anesthetized with intraperitoneal pentobarbital (75 mg/kg) and were sacrificed by open pneumothorax.
# Intestinal Mucosal Parameters: The small intestine from the pylorus to the ileo-cecal valve was removed and divided into two segments: proximal jejunum and distal ileum. The intestine was split on the antimesenteric border, washed with cold saline, dried, and each segment was weighed. The mucosa was scraped from the underlying tissue with a glass slide and weighed. Bowel and mucosal weights were calculated as mg/cm bowel length/100 g body weight. Mucosal samples were homogenized with TRIzol reagent (Rhenium LTD, Jerusalem). DNA and protein were extracted by the method of Chomczynski [BioTechniques. 15:532, 1993] and were expressed as micrograms per centimeter of bowel per 100 g of body weight. In brief, 100 mg tissue was mixed with 1 ml of TRIzol reagent and homogenized for 2 min. Following a three minute incubation period and centrifugation the contents separated into three phases. DNA was isolated from the interphase using ethanol, washed with sodium citrate and was stabilised with 75% ethanol. Protein was isolated from the lower phase using isopropyl alcohol, washed with guanidine hydrochloride, and stabilised with 100% ethanol. Quantitation of DNA was performed with a spectrophotomer. Concentration of the final protein concentration was detected using Bio-Rad Protein Assay technique.
# Statistical analysis: All data are given as mean±SD. Differences between experimental groups were tested for statistical significance (p<0.05) using the nonparametric Kruskal-Wallis ANOVA test, followed by the corrected Mann-Whitney test.
# [2] = system: jejunal and ileal crypt cells; assay: Rat ischemia-reperfusion injury: crypt cell proliferation (5-BrdU); conditions: IR rats, oral insulin, p<0.05
# Protocol: as §1
# Enterocyte proliferation and apoptosis: Crypt cell proliferation was assessed using 5-bromodeoxyuridine (5-BrdU). Standard BrdU labeling reagent (Zymed Laboratories, Inc, San Francisco, Calif.) was injected intraperitoneally at a concentration of 1 ml/100 g body weight 2 hours prior to sacrifice. […] An index of proliferation was determined as the ratio of crypt cells staining positively for BrdU per 10 crypts.
# enterocytes = assay: Rat ischemia-reperfusion injury: enterocyte apoptosis (TUNEL assay); conditions: IR rats, oral insulin; IR-untreated 2.8±0.7; p<0.05
# Protocol: as §1
# Apoptotic cells were identified using the terminal deoxynucleotidyl transferase-mediated, dUTP nick end-labeling (TUNEL) assay. Terminal deoxynucleotidyl transferase (TdT) (Boehringer Mannheim GmbH, Mannheim, Germany) was used to label DNA strand breaks. Incorporation of fluorescein was detected by anti-fluorescein antibody Fab fragments from sheep, conjugated with horse-radish peroxidase (POD) (Boehringer Mannheim GmbH, Mannheim, Germany). Briefly, five-micrometer paraffin-embedded sections were dewaxed and rehydrated with xylene and graded alcohol. […]
# [3] = IR-INS rats, 24 h reperfusion, IR 18±3, p<0.05
substance,measurement,setting,value
insulin,post-operative mortality,"[1]; IR rats, insulin in drinking water (2%) 3 days prior to and 24 hours following IR",no effect
same,ileal mucosal weight,"[1]; IR-INS rats, 24 h reperfusion, IR 5.9±0.6, p<0.05",7.3±0.4 mg/cm/100 g
same,jejunal mucosal weight,"[1]; IR-INS rats, 24 h reperfusion, IR 7.0±0.6, p<0.05",8.9±0.6 mg/cm/100 g
same,mucosal protein in ileum,[1]; [3],25±2 μg/cm/100 g
same,mucosal protein in jejunum,[1]; [3],28±3 μg/cm/100 g
same,jejunal intestinal (bowel) weight,"[1]; IR-INS rats, 24 h reperfusion, IR 20.1±0.7, p<0.05",23±0.8 mg/cm/100 g
same,enterocyte proliferation index in ileum,[2]; IR 173±8,289±26 BrdU positive cells/10 crypts
same,enterocyte proliferation index in jejunum,[2]; IR 212±18,298±21 BrdU positive cells/10 crypts
same,apoptotic index in ileum,enterocytes,1.2±0.4 TUNEL positive cells/10 villi
